From US11931339B2, “Compositions and methods for treating tissue injury” (CASE WESTERN RESERVE UNIVERSITY, priority 2018, dated 2024)
Each block holds one compound with its values, some of them ahead of it.

Assays:
[1] = tested on: Myc-PKM2-WT and Myc-PKM2-C423/424A HEK cells; assay: ADP/ATP ratio in PKM2-expressing HEK cells under NO treatment; assay type: cell-based; details: HEK cells under NO treatment (DETANO 500 μM); FIG. 12
Protocol: (§1) HEK cell transfection was described herein. siRNA-mediated protein depletion was used in HEK cells. Two custom PKM2 siRNAs that target the 3′ UTR of PKM2 were obtained from Dharmacon. siRNA oligonucleotides (60 pmol/10 cm plate) were transfected into HEK cells using Lipofectamine RNAiMAX (Invitrogen) according to the manufacturer's protocol. After 24 hours, 5 μg pCMV-control, pCMV-PKM2-WT or pCMV-PKM2-C423A/424A were co-transfected with siRNA oligonucleotides (60 pmol/10 cm plate) into HEK cells using Lipofectamine 2000. After 24 hrs, cells were treated with 500 μM DETA-NO for 20 hr. Cells were then collected for assay.
(§2) The amount of pyruvate was measured using Pyruvate Assay Kit (Sigma). Kidneys harvested from SCoR^+/+, SCoR^−/−, PKM2^+/+ or PKM2^−/− mice (sham operation or AKI) were mechanically homogenized in Pyruvate Assay Buffer (1 mg/5 μl buffer). After extracts were clarified by centrifugation (20,000 g, 4° C., 20 min, ×2), supernatant was used for assay. GHB in the serum of SCoR^+/+ and SCoR^−/− mice was measured following the GHB enzymatic assay kit from BUHLMANN. […] The amount of PEP, 6PG, ATP, ADP and serine were respectively measured using PEP Colorimetric/Fluorometric Assay Kit (Sigma), 6 phosphogluconate Assay kit (abeam), ATP Colorimetric/Fluorometric Assay Kit (Sigma), ADP Colorimetric/Fluorometric Assay Kit (Sigma) and DL-Serine Assay kit (Fluorometric) (Biovision).

[2] = tested on: Myc-PKM2-WT and Myc-PKM2-C423/424A expressing HEK cells; assay: PEP accumulation in PKM2-expressing HEK cells after NO treatment; assay type: cell-based; details: HEK cells with endogenous PKM2 knocked down; 500 μM DETANO; FIG. 3h
Protocol: as §1, §2

[3] = target: T1, PKM2-C423/424A in HEK cells (Homo sapiens, UniProt P14618, C423A/C424A); assay: Activity of Myc-PKM2-C423/424A after NO (DETA-NO) treatment in HEK cells; assay type: cell-based; details: 500 μM DETA-NO for 20 hr; FIG. 11b
T1 construct: host or cells: HEK cells (endogenous PKM2 depleted by siRNA against the 3' UTR)
T1 sequence (P14618 2-531 C423A/C424A): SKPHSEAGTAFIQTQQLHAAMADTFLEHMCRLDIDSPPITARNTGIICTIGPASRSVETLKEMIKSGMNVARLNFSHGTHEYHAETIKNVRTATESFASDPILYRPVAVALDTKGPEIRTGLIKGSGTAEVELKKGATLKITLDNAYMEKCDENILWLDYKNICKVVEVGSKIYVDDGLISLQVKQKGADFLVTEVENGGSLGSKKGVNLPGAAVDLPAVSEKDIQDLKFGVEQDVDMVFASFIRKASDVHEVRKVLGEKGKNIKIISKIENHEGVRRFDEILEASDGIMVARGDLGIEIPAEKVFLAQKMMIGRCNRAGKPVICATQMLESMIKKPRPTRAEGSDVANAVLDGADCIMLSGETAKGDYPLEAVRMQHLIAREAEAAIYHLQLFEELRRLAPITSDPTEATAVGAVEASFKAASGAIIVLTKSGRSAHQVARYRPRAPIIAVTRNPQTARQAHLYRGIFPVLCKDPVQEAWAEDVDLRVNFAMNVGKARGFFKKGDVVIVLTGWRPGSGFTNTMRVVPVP
Protocol: as §1
PKM activity was measured based on generation of pyruvate, which was oxidized by pyruvate oxidase to produce color (k=570 nm). To measure PKM2 activity in vitro, 250 ng recombinant PKM2-WT and PKM2-C423A/424A proteins were pre-incubated with substrate 2 μl fructose-1,6-bisphosphate (FBP)(250 μM) in 2 ml dialysis buffer [20 mM Tris-HCL (pH 7.9), 20% (v/v) glycerol, 0.1 M KCL, 0.2 mM EDTA], followed by dialysis to remove the free FBP in 2 L dialysis buffer. After 10 ng PKM2-FBP complex was treated with 200-300 μM SNO-CoA for 10 min at room temperature, the activity of PKM2 was measured. […] Extracts were clarified by centrifugation (20,000 g, 4° C., 20 min, ×2), and protein concentration was determined by bicinchoninic acid assay. […]

[4] = tested on: Myc-PKM2-WT and Myc-PKM2-C423/424A expressing HEK cells; assay: 6-phosphogluconate accumulation in PKM2-expressing HEK cells after NO treatment; assay type: cell-based; details: DETANO 500 μM, FIG. 11d
Protocol: as §1, §2

recombinant PKM1 = recombinant PKM1 (Homo sapiens, UniProt P14618); assay: Activity of recombinant PKM1 after SNO-CoA treatment; assay type: biochemical; details: FIG. 8
Chain of recombinant PKM1 (P14618 1-531 isoform P14618-2, species assumed): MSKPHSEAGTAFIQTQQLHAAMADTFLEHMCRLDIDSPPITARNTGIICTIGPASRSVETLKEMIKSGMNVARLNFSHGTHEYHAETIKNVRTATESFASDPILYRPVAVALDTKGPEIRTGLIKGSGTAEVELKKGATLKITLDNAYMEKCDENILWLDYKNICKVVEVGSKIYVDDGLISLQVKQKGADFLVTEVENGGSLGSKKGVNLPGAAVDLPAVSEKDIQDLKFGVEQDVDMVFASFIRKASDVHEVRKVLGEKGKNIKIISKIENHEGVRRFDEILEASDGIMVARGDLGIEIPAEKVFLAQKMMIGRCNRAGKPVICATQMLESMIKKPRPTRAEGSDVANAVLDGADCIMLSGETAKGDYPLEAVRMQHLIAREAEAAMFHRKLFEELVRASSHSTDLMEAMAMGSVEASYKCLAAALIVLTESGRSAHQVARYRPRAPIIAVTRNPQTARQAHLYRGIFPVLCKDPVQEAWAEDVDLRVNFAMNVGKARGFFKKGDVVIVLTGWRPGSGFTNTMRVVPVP

tetrameric PKM2-WT = target: T2, tetrameric PKM2-WT (Homo sapiens, UniProt P14618); assay: PKM2 dimer and tetramer formation in vitro, PKM2-WT; assay type: biochemical; details: purified proteins, 200-300 μM SNO-CoA for 10 min; FIG. 3g
T2 construct: 6xHis (C); made in house; host or cells: E. coli BL21-CodonPlus
T2 sequence (P14618 whole entry, species assumed): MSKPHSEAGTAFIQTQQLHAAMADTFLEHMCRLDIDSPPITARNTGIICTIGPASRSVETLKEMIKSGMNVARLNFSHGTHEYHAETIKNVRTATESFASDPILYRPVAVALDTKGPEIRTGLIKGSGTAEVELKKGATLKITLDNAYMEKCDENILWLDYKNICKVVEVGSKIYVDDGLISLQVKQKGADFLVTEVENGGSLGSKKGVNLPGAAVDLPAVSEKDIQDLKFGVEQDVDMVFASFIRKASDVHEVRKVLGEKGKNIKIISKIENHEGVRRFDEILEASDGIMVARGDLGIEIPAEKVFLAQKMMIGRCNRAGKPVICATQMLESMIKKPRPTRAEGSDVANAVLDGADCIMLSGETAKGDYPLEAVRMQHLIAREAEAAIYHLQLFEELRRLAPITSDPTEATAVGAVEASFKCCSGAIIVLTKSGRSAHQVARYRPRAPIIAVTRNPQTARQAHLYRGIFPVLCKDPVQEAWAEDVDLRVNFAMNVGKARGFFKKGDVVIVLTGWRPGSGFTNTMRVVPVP
Protocol: Assay of PKM2 dimer and tetramer in vitro follows previous descriptions. In brief, after 40 ng PKM2-FBP complex was treated with 200-300 μM SNO-CoA for 10 min at room temperature, 5 μl fresh glutaraldehyde (50%) was added to a reaction mixture containing 100 mM HEPES (pH 7.5) for 5 min at 37° C. The cross-linking reaction was terminated by addition of 5 μl 1M Tris-HCL (PH 8.0). Assay of PKM2 dimer and tetramer in situ was carried out as described previously. DSS (disuccinimidyl suberate; Thermo Scientific) (final 500 μM) was added to cells for 30 min at room temperature to cross-link proteins. Cells were lysed in RIPA Buffer and protein concentration was determined by bicinchoninic acid assay. Equal amounts of protein were separated by 4-15% Criterion™ Precast Midi Protein Gel and monomer, dimer and tetramer forms of PKM2 were detected with PKM2 antibody.

recombinant PKM2 = target: T3, recombinant PKM2 (Homo sapiens, UniProt P14618); assay: PKM activity of recombinant PKM2 after SNO-CoA treatment; assay type: biochemical; details: PKM2-FBP complex, 200-300 μM SNO-CoA for 10 min at room temperature; FIG. 3d
T3 construct: 6xHis (C); made in house; host or cells: E. coli BL21-CodonPlus
T3 sequence (P14618 whole entry, species assumed): as above
Protocol: PKM activity was measured based on generation of pyruvate, which was oxidized by pyruvate oxidase to produce color (k=570 nm). To measure PKM2 activity in vitro, 250 ng recombinant PKM2-WT and PKM2-C423A/424A proteins were pre-incubated with substrate 2 μl fructose-1,6-bisphosphate (FBP)(250 μM) in 2 ml dialysis buffer [20 mM Tris-HCL (pH 7.9), 20% (v/v) glycerol, 0.1 M KCL, 0.2 mM EDTA], followed by dialysis to remove the free FBP in 2 L dialysis buffer. After 10 ng PKM2-FBP complex was treated with 200-300 μM SNO-CoA for 10 min at room temperature, the activity of PKM2 was measured. To measure PKM2 activity in kidney, kidneys were mechanically homogenized in lysis buffer [50 mM phosphate buffer, pH 7.0, 150 mM NaCl, 0.1 mM EDTA, 0.1 mM DTPA, 1 mM PMSF, and protease inhibitor mixture (Roche)]. Extracts were clarified by centrifugation (20,000 g, 4° C., 20 min, ×2), and protein concentration was determined by bicinchoninic acid assay. 10 μl (0.1 μg/μl) lysate was used to measure PKM2 activity. Assay of PKM2 activity was followed the protocol of Pyruvate Kinase Activity Colorimetric/Fluorometric Assay Kit from Biovison In.

[5] = target: T4, recombinant PKM2-C423/424A (Homo sapiens, UniProt P14618, C423A/C424A); assay: Activity of recombinant PKM2-C423/424A after SNO-CoA treatment; assay type: biochemical; details: in vitro, 200-300 μM SNO-CoA for 10 min; FIG. 3f
T4 construct: 6xHis (C); made in house; host or cells: E. coli BL21-CodonPlus
T4 sequence (P14618 2-531 C423A/C424A): as the sequence (P14618 2-531 C423A/C424A) above
From the text: The mammalian cell expression plasmid pCMV-PKM2 was obtained from Origene. Mammalian cell expression plasmid pcDNA-SCoR was constructed by PCR-cloning. pCMV-PKM2 cysteine mutants were generated by QuikChange II Site-Directed Mutagenesis Kit (Agilent). For purification of recombinant PKM2, cDNA encoding PKM2-WT or PKM2-C423A/424A were cloned into pET21b (Novagen) to introduce a C-terminal 6×His tag on the expressed protein. The recombinant PKM2 proteins were purified from BL21-CodonPlus Competent E. coli Cells (Agilent). Overnight E. coli cultures were sub-cultured into 1 L of LB medium at 5%. At OD600 of 0.5, cultures were induced with […] IPTG and grown for a further 4 hr at 28° C. Cultures were centrifuged at 4000 g for 10 min to harvest the cells. Cell pellets from 1 L cultures were lysed in 10 mL of 1×PBS buffer containing 1 mM PMSF and protease-inhibitor cocktail by sonication. After centrifugation at 14500 g for 20 min, the supernatant was collected. […]
PKM activity was measured based on generation of pyruvate, which was oxidized by pyruvate oxidase to produce color (k=570 nm). […] After 10 ng PKM2-FBP complex was treated with 200-300 μM SNO-CoA for 10 min at room temperature, the activity of PKM2 was measured. […] Extracts were clarified by centrifugation (20,000 g, 4° C., 20 min, ×2), and protein concentration was determined by bicinchoninic acid assay. […]

recombinant PKLR = recombinant PKLR (Homo sapiens, UniProt P30613); assay: Activity of recombinant PKLR after SNO-CoA treatment; assay type: biochemical; details: FIG. 8
Chain of recombinant PKLR (P30613 whole entry, species assumed): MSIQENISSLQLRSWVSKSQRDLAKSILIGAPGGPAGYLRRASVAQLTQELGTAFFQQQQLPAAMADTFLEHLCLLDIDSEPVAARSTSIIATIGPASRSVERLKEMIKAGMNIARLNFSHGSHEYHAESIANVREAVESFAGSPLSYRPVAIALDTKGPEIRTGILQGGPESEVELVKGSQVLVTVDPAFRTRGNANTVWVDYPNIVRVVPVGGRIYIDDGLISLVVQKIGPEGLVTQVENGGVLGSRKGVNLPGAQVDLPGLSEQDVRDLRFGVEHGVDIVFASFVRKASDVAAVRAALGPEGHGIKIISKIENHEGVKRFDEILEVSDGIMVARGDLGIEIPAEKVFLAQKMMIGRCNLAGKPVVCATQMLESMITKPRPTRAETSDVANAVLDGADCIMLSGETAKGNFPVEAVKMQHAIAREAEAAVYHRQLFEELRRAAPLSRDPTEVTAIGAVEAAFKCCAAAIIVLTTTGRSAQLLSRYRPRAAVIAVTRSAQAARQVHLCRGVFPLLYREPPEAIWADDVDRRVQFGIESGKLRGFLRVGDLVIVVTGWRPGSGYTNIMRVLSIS

SCoR−/− mice = assay: Ascorbate-supplemented chow in SCoR−/− mice: ascorbate levels and I/R-induced AKI; assay type: in vivo; details: chow with 1% ascorbate for six weeks, FIGS. 7b-c
Protocol: AKI surgery was carried out as described herein. Mice of similar age (9-11 weeks) and body weight (male: 25-28 g; female: 22-25 g) were used for surgery. The mice were anesthetized with isoflurane (1-3%) in oxygen and then anesthesia was maintained with isoflurane (0.75-2.0%) and adjusted as needed. The fur in the surgical area was removed with clippers and the skin sterilized with 3 times alternating washes of betadine […] and alcohol. The mouse was placed on a thermostatic station during surgery. The skin and muscle were cut open along the back to expose both right and left kidneys. Gentle blunt dissection was performed through muscular layers to reveal the kidney and a Q-tip was used to mobilize and exteriorize the kidney. A 5-0 silk suture was used to clamp the pedicle to block the blood flow to the kidney to induce renal ischemia for 23 min in male mice or 50 min in female mice, then the sutures released to allow reperfusion. The identical steps were performed on the contra-lateral side. A silk suture was used to close the muscle layer of the incision followed by the closure of the skin wound with vicryl. […] Seram creatinine and BUN were determined after 24 hrs of reperfusion upon removal of the kidney (when larger volumes of blood can be collected). Seram creatinine and BUN were measured at University Hospital's Clinical Laboratories.

- activity of PKM2-C423/424A in HEK cells [3]: cannot be inhibited
Structure (SMILES): NCCN(CCN)/[N+]([O-])=N/O [DETA-NO]
- ADP/ATP ratio between Myc-PKM2-WT and Myc-PKM2-C423/424A cells [1]: no different
- accumulation of PEP in Myc-PKM2-C423/424A cells [2]: not Myc-PKM2-C423/424A cells
- accumulation of PEP in Myc-PKM2-WT cells [2]: promoted the accumulation of PEP
- accumulation of 6-phosphogluconate in Myc-PKM2-WT vs. Myc-PKM2-C423/424A cells [4]: promotes accumulation of 6-phosphogluconate

- activity of recombinant PKM2 after SNO-CoA treatment (recombinant PKM2): directly inhibited
- activity of PKM2-C423/424A after SNO-CoA treatment [5]: cannot be inhibited
Structure (SMILES): CC(C)(COP(=O)(O)OP(=O)(O)OC[C@H]1O[C@@H](n2cnc3c(N)ncnc32)[C@H](O)[C@@H]1OP(=O)(O)O)[C@@H](O)C(=O)NCCC(=O)NCCSN=O [SNO-CoA, S-nitroso-CoA]
- activity of recombinant PKM1 after SNO-CoA treatment (recombinant PKM1): not other PK isoforms (PKM1 or PKLR), was directly inhibited
- formation of tetrameric PKM2-WT (tetrameric PKM2-WT): inhibited formation of tetrameric PKM2-WT
- activity of recombinant PKLR after SNO-CoA treatment (recombinant PKLR): not other PK isoforms (PKM1 or PKLR), was directly inhibited

Structure (SMILES): O=C1O[C@H]([C@@H](O)CO)C(O)=C1O [ascorbate, ascorbic acid]
- AKI phenotype (serum creatinine and BUN) (SCoR−/− mice): no effect on the AKI phenotype
